Experimental findings from patent US9469630B2, “Sustained-release formulation for injection” (SUMITOMO DAINIPPON PHARMA CO., LTD., priority 2010, dated 2016) are described below.

The nature of this series: Solubility in water. The format is physicochemical.

As to `Cl.O=C1[C@@H]2[C@H]3CC[C@H](C3)[C@@H]2C(=O)N1C[C@@H]1CCCC[C@H]1CN1CCN(c2nsc3ccccc23)CC1` [Compound 1, N-[4-[4-(1,2-benzisothiazol-3-yl)-1-piperazinyl]-(2R,3R)-2,3-tetramethylene-butyl]-(1′R,2′S,3′R,4′S)-2,3-bicyclo[2,2,1]heptanedicarboximide hydrochloride], the solubility in water result is on record as “low”.
